Test results reported in patent US5776734A, “DNA encoding the β subunit of a mammalian maxi-K potassium channel” (Merck & Co., Inc., priority 1996, dated 1998).

What was measured:
[1] = molecular target: T1, purified maxi-K channel from bovine tracheal smooth muscle (Bos taurus, UniProt Q28067+Q28204); test: [125I]ChTX binding to purified maxi-K channel (ChTX receptor); details: for inhibition of 125I-ChTX binding to the purified maxi-K channel: in a manner similar to native tissue channels
T1 construct: Purified sarcolemmal membrane vesicles derived from bovine tracheal smooth muscle; from tissue; host or cells: bovine tracheal smooth muscle sarcolemmal membranes
T1 sequence (Q28204 whole entry): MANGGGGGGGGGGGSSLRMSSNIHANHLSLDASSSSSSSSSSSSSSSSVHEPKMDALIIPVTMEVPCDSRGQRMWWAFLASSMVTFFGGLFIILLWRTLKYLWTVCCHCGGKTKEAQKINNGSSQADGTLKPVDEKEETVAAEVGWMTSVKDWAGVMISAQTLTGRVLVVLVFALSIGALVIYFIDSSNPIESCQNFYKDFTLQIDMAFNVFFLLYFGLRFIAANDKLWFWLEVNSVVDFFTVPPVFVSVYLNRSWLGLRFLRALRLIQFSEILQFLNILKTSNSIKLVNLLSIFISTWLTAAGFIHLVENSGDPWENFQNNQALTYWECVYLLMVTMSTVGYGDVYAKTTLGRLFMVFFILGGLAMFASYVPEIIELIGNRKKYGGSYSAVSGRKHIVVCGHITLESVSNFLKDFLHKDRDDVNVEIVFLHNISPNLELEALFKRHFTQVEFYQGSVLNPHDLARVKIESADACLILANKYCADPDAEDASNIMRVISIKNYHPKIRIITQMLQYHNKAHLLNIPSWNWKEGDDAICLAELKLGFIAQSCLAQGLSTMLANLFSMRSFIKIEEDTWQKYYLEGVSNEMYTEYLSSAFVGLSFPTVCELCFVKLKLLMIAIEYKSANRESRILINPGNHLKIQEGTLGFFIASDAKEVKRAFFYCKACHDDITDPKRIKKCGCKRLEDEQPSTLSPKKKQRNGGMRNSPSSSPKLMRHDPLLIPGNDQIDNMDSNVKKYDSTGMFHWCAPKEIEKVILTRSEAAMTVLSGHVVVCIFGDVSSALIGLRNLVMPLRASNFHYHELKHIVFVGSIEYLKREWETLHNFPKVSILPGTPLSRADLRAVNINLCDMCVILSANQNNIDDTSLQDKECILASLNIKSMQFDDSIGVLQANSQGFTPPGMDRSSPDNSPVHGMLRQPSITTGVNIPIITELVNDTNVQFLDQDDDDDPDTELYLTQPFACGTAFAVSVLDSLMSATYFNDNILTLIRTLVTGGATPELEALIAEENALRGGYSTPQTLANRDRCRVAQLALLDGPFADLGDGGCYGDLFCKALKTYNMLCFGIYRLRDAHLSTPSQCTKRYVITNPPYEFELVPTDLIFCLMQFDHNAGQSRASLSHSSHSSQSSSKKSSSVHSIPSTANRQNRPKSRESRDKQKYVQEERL
T1 sequence (Q28067 2-191): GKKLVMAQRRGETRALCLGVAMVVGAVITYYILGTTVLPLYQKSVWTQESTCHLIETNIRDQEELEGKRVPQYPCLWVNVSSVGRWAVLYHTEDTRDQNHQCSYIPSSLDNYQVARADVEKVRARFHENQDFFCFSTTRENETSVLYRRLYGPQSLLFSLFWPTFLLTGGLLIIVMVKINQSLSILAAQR
Protocol: Purified sarcolemmal membrane vesicles derived from bovine tracheal smooth muscle were prepared as previously described (Slaughter, R. S., Shevell, J. L., Felix, J. P., Garcia, M. L., and Kaczorowski, G. J., Biochemistry 28, 3995-4002 (1989)). The interaction of [^125 I]ChTX (New England Nuclear Corporation) with maxi-K channels in bovine tracheal sarcolemmal membrane vesicles was monitored as outlined previously (Vazquez, J., Feigenbaum, P., Katz, G., King, V. F., Reuben, J. P., Roy-Contancin, L., Slaughter, R. S., Kaczorowski, G. J., and Garcia, M. L., J. Biol. Chem. 264, 20902-20909 (1989)). Binding of radiolabeled toxin to solubilized channels was measured by incubating aliquots of solubilized material in 0.05% digitonin with [^125 I]ChTX as described (Garcia-Calvo, M., Vazquez, J., Smith, M., Kaczorowski, G. J., and Garcia, M. L. Biochemistry 30, 11157-11164 (1991)). At the end of the incubation period, protein was precipitated by addition of 10% (w/v) PEG (Mw~8000) in the presence of […] and the precipitate was immediately collected onto GF/C glass fiber filters (Whatman) that had been presoaked in 0.5% polyethylenimine. Nonspecific binding was determined in the presence of 10 nM ChTX (Peninsula Laboratories). For each experiment, triplicate assays were routinely performed, and the data were averaged. The standard error of the mean of these replicates was typically less than 3%.

[2] = molecular target: maxi-K channel α and β subunits coexpressed in Xenopus oocytes (UniProt Q08460+Q28067); test: Patch clamp of excised inside-out patches from oocytes injected with α and β subunit cRNAs; format: cell-based, mouse α subunit, bovine β subunit; details: both subunits; 100-300 nM applied to the intracellular face of the channel
maxi-K channel α and β subunits coexpressed in Xenopus oocytes (UniProt Q08460+Q28067), sequence (Q08460 whole entry, the tested form may be a part): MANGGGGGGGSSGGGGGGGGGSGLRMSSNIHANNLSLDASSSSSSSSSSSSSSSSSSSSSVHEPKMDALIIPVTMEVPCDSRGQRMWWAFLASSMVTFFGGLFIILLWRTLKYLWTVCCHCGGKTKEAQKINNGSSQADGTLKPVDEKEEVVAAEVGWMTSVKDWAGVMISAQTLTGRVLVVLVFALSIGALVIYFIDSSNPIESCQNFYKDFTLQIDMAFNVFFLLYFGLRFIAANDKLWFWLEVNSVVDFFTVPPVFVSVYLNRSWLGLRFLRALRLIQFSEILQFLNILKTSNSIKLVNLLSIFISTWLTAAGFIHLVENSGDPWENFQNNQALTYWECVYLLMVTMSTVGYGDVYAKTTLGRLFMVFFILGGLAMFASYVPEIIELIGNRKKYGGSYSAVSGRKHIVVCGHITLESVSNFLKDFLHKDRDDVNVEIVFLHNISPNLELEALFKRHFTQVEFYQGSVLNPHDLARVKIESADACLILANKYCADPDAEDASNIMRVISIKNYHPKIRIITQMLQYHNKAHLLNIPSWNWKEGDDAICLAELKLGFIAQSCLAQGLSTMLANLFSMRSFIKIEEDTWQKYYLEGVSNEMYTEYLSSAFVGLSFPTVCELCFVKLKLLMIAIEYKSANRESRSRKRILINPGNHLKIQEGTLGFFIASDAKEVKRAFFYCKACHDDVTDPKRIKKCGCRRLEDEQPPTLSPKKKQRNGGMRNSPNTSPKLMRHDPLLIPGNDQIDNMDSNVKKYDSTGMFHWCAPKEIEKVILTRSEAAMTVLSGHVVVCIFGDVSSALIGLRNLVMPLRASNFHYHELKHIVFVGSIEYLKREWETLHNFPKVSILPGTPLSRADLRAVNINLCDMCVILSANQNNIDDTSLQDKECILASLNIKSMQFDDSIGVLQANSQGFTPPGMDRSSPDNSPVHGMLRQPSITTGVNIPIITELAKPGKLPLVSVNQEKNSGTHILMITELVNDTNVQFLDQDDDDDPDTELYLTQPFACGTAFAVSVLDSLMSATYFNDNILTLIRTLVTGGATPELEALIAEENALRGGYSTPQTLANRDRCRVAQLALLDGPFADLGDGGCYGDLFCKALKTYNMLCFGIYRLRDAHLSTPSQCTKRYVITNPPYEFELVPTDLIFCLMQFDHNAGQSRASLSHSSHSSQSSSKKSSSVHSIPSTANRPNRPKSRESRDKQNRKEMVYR
maxi-K channel α and β subunits coexpressed in Xenopus oocytes (UniProt Q08460+Q28067), sequence (Q28067 whole entry, the tested form may be a part): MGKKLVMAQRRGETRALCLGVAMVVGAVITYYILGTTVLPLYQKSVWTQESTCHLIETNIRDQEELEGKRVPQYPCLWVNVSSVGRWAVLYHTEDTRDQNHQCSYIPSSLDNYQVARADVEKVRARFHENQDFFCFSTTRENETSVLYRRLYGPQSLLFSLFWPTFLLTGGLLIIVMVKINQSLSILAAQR
Excerpt: (§1) cDNAs encoding both the α and β subunits were used as templates for the production of cRNA. The α subunit cDNA was obtained from Leo Pallanck (Univ. of Wisconsin) and consisted of a full-length mouse brain cDNA (mslo19; GenBank Accession #U09383) in an RNA transcription vector, pGH. […] We therefore used standard techniques to modify the mslo19 cDNA, specifically by deleting the 5' non-coding sequence (bases 1 to 940), and replacing that sequence with a consensus eukaryotic translation initiation sequence: 5'-GCCGCCACC-3'. […] A fragment of the β subunit cDNA, including the entire open reading frame, was subcloned into a pGEM (Promega, inc.) vector for cRNA transcription. The cRNAs encoding both the α and β subunits were transcribed using the appropriate RNA polymerase as determined by the transcription vector (T7 for α, and SP6 for β) and capped in vitro using a kit (mCAP; Stratagene, inc), purified by size-exclusion chromatography using sepahadex G-50 spin columns (Bio-Rad, inc.), and analyzed for purity and length by agarose/formaldehyde gel electrophoresis according to established procedures. […]
(§2) Currents were recorded from Xenopus oocytes using two-electrode voltage-clamp methods to record currents from the entire oocyte and patch-clamp methods to record current from small patches of membrane excised from the oocytes. […]

[3] = molecular target: maxi-K channel α subunit (mslo19) expressed in Xenopus oocytes (Mus musculus, UniProt Q08460); test: Patch clamp of excised inside-out patches from oocytes injected with α subunit cRNA alone; format: cell-based; details: 100-500 nM
maxi-K channel α subunit (mslo19) expressed in Xenopus oocytes (Mus musculus, UniProt Q08460), sequence (Q08460 whole entry): as the sequence (Q08460 whole entry, the tested form may be a part) above
Excerpt: as §1, §2

[4] = system: maxi-K channel α and β subunits coexpressed in Xenopus oocytes; test: Two-electrode voltage clamp of Xenopus oocytes injected with α and β subunit cRNAs; format: cell-based, mouse α subunit, bovine β subunit; details: oocytes injected with both α and β subunit cRNAs
maxi-K channel α and β subunits coexpressed in Xenopus oocytes, sequence (Q08460 66-642 limits assumed): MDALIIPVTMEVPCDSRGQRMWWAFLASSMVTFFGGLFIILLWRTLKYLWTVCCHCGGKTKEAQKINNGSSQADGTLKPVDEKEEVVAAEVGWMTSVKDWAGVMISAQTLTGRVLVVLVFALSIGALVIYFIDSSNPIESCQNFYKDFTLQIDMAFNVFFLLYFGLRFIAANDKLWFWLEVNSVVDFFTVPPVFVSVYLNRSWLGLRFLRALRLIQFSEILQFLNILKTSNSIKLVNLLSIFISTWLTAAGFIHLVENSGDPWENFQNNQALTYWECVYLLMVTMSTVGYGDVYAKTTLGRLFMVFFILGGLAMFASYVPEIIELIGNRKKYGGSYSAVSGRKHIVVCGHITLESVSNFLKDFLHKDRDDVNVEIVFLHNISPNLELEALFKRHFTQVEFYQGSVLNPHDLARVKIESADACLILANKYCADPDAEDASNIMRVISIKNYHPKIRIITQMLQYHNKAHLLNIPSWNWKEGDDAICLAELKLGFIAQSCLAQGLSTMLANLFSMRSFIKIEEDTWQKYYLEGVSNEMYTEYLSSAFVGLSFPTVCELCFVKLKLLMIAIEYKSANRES
maxi-K channel α and β subunits coexpressed in Xenopus oocytes, sequence (as listed by the source): as the sequence (Q28067 2-191) above
Excerpt: as §1, §2

[5] = molecular target: T2, 31,000 component (β subunit) of purified ChTX receptor (Bos taurus, UniProt Q28067+Q28204); test: Covalent crosslinking of [125I]ChTX to purified receptor with disuccinimidyl suberate, SDS-PAGE; format: binding, bovine; details: in the presence of disuccinimidyl suberate
T2 construct: Purified sarcolemmal membrane vesicles derived from bovine tracheal smooth muscle; from tissue; host or cells: bovine tracheal smooth muscle sarcolemmal membranes
T2 sequence (Q28204 whole entry): as the sequence (Q28204 whole entry) above
T2 sequence (Q28067 2-191): as the sequence (Q28067 2-191) above
Protocol: Fractions from the last sucrose density gradient centrifugation containing 31-158 ng of protein were dialyzed against 10 mM Na-borate, pH 9.0, 0.05% Triton X-100 and then reacted with 3.5 mCi of [^125 I]Bolton-Hunter reagent (2200 Ci/mmol; New England Nuclear Corporation) for 15 min on ice. The reaction was quenched by addition of Tris-HCl, pH 7.4 to a final concentration of 100 mM. Covalent incorporation of [^125 I]ChTX into the purified receptor was accomplished with the bifunctional reagent, disuccinimidyl suberate as previously described for crosslinking ChTX to its receptor in membranes (Garcia-Calvo, M., Vazquez, J., Smith, M., Kaczorowski, G. J., and Garcia, M. L. (1991) Biochemistry 30, 11157-11164). Briefly, the purified receptor preparation was incubated with 130 pM [^125 I]ChTX in 10 mM NaCl, 10 mM Taps-NaOH, pH 9.0, 0.1% digitonin, in the absence or presence of unlabeled ChTX, for two hours at room temperature. The solution was then adjusted to 0.2M NaCl and disuccinimidyl suberate was added to a final concentration of 0.18 mM. After incubation at room temperature for 1 min, the reaction was stopped by addition of Tris-HCl, pH 7.4 to a final concentration of 200 mM. Samples were dialyzed against 10 mM Tris-HCl, pH 7.4, 0.05% digitonin, concentrated 10 fold, and subjected to SDS-PAGE. […]

[6] = system: maxi-K channel α subunit (mslo19) expressed in Xenopus oocytes; test: Two-electrode voltage clamp of Xenopus oocytes injected with α subunit cRNA alone; format: cell-based, mouse; details: for block of outward potassium currents: no concentration given; for block of outward currents in whole-oocyte voltage clamp: toxin at 10 to 30 nM
maxi-K channel α subunit (mslo19) expressed in Xenopus oocytes, sequence (Q08460 66-642 limits assumed): as the sequence (Q08460 66-642 limits assumed) above
Excerpt: cDNAs encoding both the α and β subunits were used as templates for the production of cRNA. The α subunit cDNA was obtained from Leo Pallanck (Univ. of Wisconsin) and consisted of a full-length mouse brain cDNA (mslo19; GenBank Accession #U09383) in an RNA transcription vector, pGH. […] We therefore used standard techniques to modify the mslo19 cDNA, specifically by deleting the 5' non-coding sequence (bases 1 to 940), and replacing that sequence with a consensus eukaryotic translation initiation sequence: 5'-GCCGCCACC-3'. […] A fragment of the β subunit cDNA, including the entire open reading frame, was subcloned into a pGEM (Promega, inc.) vector for cRNA transcription. The cRNAs encoding both the α and β subunits were transcribed using the appropriate RNA polymerase as determined by the transcription vector (T7 for α, and SP6 for β) and capped in vitro using a kit (mCAP; Stratagene, inc), purified by size-exclusion chromatography using sepahadex G-50 spin columns (Bio-Rad, inc.), and analyzed for purity and length by agarose/formaldehyde gel electrophoresis according to established procedures. Following ethanol precipitation, cRNAs were resuspended in sterile, DEPC-treated water at a concentration of 0.1 to 1 μg/μl, and stored in 2 μl aliquots at […].
Injection of mRNA or cRNA into Xenopus oocytes was done by a modification of established protocols (A. Coleman, Transcription and Translation: A Practical Approach. B. D. Hanes, S. J. Higgins, Eds., 1984); Y. Masu, et al., Nature 329, 836-838 (1987)). Oocytes were surgically removed from 0.17% tricaine anesthetized Xenopus laevis (Xenopus One). The excised ovarian lobes were teased apart with jeweler's forceps and then placed into OR-2 (82.5 mM NaCl, 2 mM KCl, 1 mM MgCl2, 5 mM HEPES, pH 7.4) containing 2 mg/ml collagenase β (Boehringer Mannhiem) for 2 hours at room temperature with a change of the buffer at 1 hour. Isolated oocytes were repeatedly washed in OR-2 until the supernatant remained clear. Stage 5 and 6 oocytes were selected and cultured overnight in supplemented OR-2 (OR-2 containing 1.8 mM CaCl2 and 0.5 mg/ml gentamycin. Oocytes were injected with 46 nl of RNA at a concentration of 0.1 to 1.0 mg/ml in H2 O. RNA was injected using a Nanoject automatic oocyte injector (Drummond Scientific) and injection needles were pulled from 3.5" Drummond capillaries using a Micropipette puller (Kopf Instruments).
Currents were recorded from Xenopus oocytes using two-electrode voltage-clamp methods to record currents from the entire oocyte and patch-clamp methods to record current from small patches of membrane excised from the oocytes. Recordings were done at room temperature and were performed 1 to 30 days after injection. […]

Molecule: limbatustoxin [LbTX]
- inhibition of 125I-ChTX binding to the purified maxi-K channel [1]: inhibited

Molecule: dehydrosoyasaponin I [DHS-I]
- channel activation [2]: fully activated
- effect on channel open probability / patch currents [3]: not increased

Molecule: [Ba] [barium]
- inhibition of 125I-ChTX binding to the purified maxi-K channel [1]: inhibited

Molecule: [Cs] [cesium]
- inhibition of 125I-ChTX binding to the purified maxi-K channel [1]: inhibited

Molecule: ^125 I-ChTX: radiolabeled toxin (New England Nuclear Corporation)
- binding affinity for the purified channel compared with the native maxi-K channel ([1]; purified channel from bovine tracheal smooth muscle): similar

Molecule: iberiotoxin (QFTDVDCSVSKECWSVCKDLFGVDRGKCMGKKCRCYQ) [IbTX]
- block of outward potassium currents [4]: blocked
- effect on [125I]ChTX labeling of the 31,000 component [5]: abolished
- inhibition of 125I-ChTX binding to the purified maxi-K channel [1]: inhibited
- block of outward potassium currents [6]: blocked
- block of outward currents in whole-oocyte voltage clamp [6]: blocked

Molecule: [K+] [potassium]
- effect on [125I]ChTX labeling of the 31,000 component [5]: abolished
- inhibition of 125I-ChTX binding to the purified maxi-K channel [1]: inhibited

Molecule: charybdotoxin [ChTX]
- block of outward potassium currents [4]: blocked
- inhibition of 125I-ChTX binding to the purified maxi-K channel [1]: inhibited
- block of outward potassium currents [6]: blocked
- block of outward currents in whole-oocyte voltage clamp [6]: blocked
